From patent US5919788A, “4-(1H-indol-1-yl)-1-piperidinyl derivatives” (Janssen Pharmaceutica, N.V., priority 1995, dated 1999)
Where two headings read alike, the source gives them in different places.

How the values were obtained:
Assay type in all cases: in vivo
dopamine = assay: combined apomorphine, tryptamine, norepinephrine (ATN) test in rats: apomorphine (APO), central dopamine antagonism; details: Rattus norvegicus, preventing the symptoms elicited with apomorphine
norepinephrine = assay: combined apomorphine, tryptamine, norepinephrine (ATN) test in rats: norepinephrine (NOR), peripheral α-adrenergic antagonism; details: Rattus norvegicus, read-out: NOR, ED50
serotonin = assay: combined apomorphine, tryptamine, norepinephrine (ATN) test in rats: tryptamine (TRY), central (convulsions) and peripheral (hyperaemia) serotonin antagonism; details: Rattus norvegicus
[1] = preventing central symptoms (convulsions), central serotonin antagonism, read-out: TRY convulsions, ED50
[2] = preventing peripheral symptoms (hyperaemia), peripheral serotonin antagonism, read-out: TRY hyperaemia, ED50
[3] = preventing or delaying death upon administration of norepinephrine, rats, peripheral α-adrenergic antagonism

Structure (SMILES) | ED50 (dopamine) | ED50 (norepinephrine) | ED50 (serotonin; [1]) | ED50 (serotonin; [2]) | ED50 (norepinephrine; [3])
Cc1cc2nc(C)c(CCN3CCC(n4ccc5cc(F)ccc54)CC3)c(=O)n2o1 [Compound 10] | 0.63 mg/kg | 10 mg/kg | 0.16 mg/kg | 0.0025 mg/kg | –
Cc1nc2sccn2c(=O)c1CCN1CCC(n2ccc3ccccc32)CC1 [Compound 3, 6-[2-[4-(1H-indol-1-yl)-1-piperidinyl]ethyl]-7-methyl-5H-thiazolo[3,2-a]pyrimidin-5-one] | 0.16 mg/kg | > 10 mg/kg | 0.16 mg/kg | 0.01 mg/kg | –
Cc1nc2c(C)cccn2c(=O)c1CCN1CCC(n2ccc3cc(F)ccc32)CC1 [Compound 20] | 0.63 mg/kg | > 10 mg/kg | 0.63 mg/kg | 0.16 mg/kg | –
COC1CCCn2c1nc(C)c(CCN1CCC(n3ccc4cc(F)ccc43)CC1)c2=O (centres unmarked) [Compound 15] | 0.16 mg/kg | 10 mg/kg | 0.63 mg/kg | 0.01 mg/kg | –
Cc1nc2sccn2c(=O)c1CCN1CCC(N2CCc3ccccc32)CC1 [Compound 5] | 0.08 mg/kg | – | 0.31 mg/kg | 0.02 mg/kg | –
Cc1nc2n(c(=O)c1CCN1CCC(n3ccc4cc(F)ccc43)CC1)C(C)CCC2 (centres unmarked) [Compound 29] | 0.08 mg/kg | – | 0.31 mg/kg | 0.005 mg/kg | 5 mg/kg
Cc1nc2c(C)cccn2c(=O)c1CCN1CCC(n2ccc3ccccc32)CC1 [Compound 19] | 0.63 mg/kg | > 10 mg/kg | 2.5 mg/kg | 0.63 mg/kg | –
Cc1nc2scc(C)n2c(=O)c1CCN1CCC(n2ccc3ccccc32)CC1 [Compound 6, 6-[2-[4-(1H-indol-1-yl)-1-piperidinyl]ethyl]-3,7-dimethyl-5H-thiazolo[3,2-a]pyrimidin-5-one] | 0.16 mg/kg | 10 mg/kg | 0.16 mg/kg | 0.01 mg/kg | –
Cc1nc2n(c(=O)c1CCN1CCC(N3CCc4ccccc43)CC1)CCCC2 [Compound 31] | 1.25 mg/kg | – | 1.25 mg/kg | 0.31 mg/kg | –
Cc1nc2ccccn2c(=O)c1CCN1CCC(n2ccc3cc(F)ccc32)CC1 [Compound 18] | 0.08 mg/kg | – | 0.08 mg/kg | 0.01 mg/kg | 5 mg/kg
Cc1nc2n(c(=O)c1CCN1CCC(n3ccc4ccccc43)CC1)CCCS2 [Compound 16] | 0.16 mg/kg | 10 mg/kg | 0.63 mg/kg | 0.02 mg/kg | –
Cc1nc2n(c(=O)c1CCN1CCC(n3ccc4cc(F)ccc43)CC1)CCCC2 [Compound 12, 3-[2-[4-(5-fluoro-1H-indol-1-yl)-1-piperidinyl]ethyl]-6,7,8,9-tetrahydro-2-methyl-4H-pyrido[1,2-a]pyrimidin-4-one] | 0.31 mg/kg | > 10 mg/kg | 0.31 mg/kg | 0.02 mg/kg | –
Cc1nc2n(c(=O)c1CCN1CCC(n3ccc4cc(F)ccc43)CC1)CCS2 [Compound 2] | 0.16 mg/kg | 10 mg/kg | 0.63 mg/kg | 0.01 mg/kg | –
Cc1nc2sccn2c(=O)c1CCN1CCC(n2ccc3cc(F)ccc32)CC1 [Compound 4, 6-[2-[4-(5-fluoro-1H-indol-1-yl)-1-piperidinyl]ethyl]-7-methyl-5H-thiazolo[3,2-a]-pyrimidin-5-one] | 0.04 mg/kg | 2.5 mg/kg | 0.04 mg/kg | 0.01 mg/kg | –
Cc1nc2n(c(=O)c1CCN1CCC(n3ccc4cc(F)ccc43)CC1)CCCS2 [Compound 17] | 0.08 mg/kg | – | 0.16 mg/kg | 0.02 mg/kg | 5 mg/kg
Cc1nc2n(c(=O)c1CCN1CCC(N3c4ccccc4CC3C)CC1)CCCC2 (centres unmarked) [Compound 34] | 5 mg/kg | – | > 10 mg/kg | ≤ 0.63 mg/kg | –
O=C(O)/C=C/C(=O)O.O=c1[nH]c2ccccc2n1CCCN1CCC(n2ccc3cc(F)ccc32)CC1 [Compound 28, 1-[3-[4-(5-fluoro-1H-indol-1-yl)-1-piperidinyl]propyl]-1,3-dihydro-2H-benzimidazol-2-one (E)-2-butenedioate (1:1)] | – | > 10 mg/kg | 0.16 mg/kg | 0.01 mg/kg | –
CCSc1nc(C)c(CCN2CCC(n3ccc4ccccc43)CC2)c(=O)n1C [Compound 25] | 0.63 mg/kg | > 10 mg/kg | 2.5 mg/kg | 0.16 mg/kg | –
Cc1nn2c(=O)c(CCN3CCC(n4ccc5cc(F)ccc54)CC3)c(C)nc2s1 [Compound 8, 6-[2-[4-(5-fluoro-1H-indol-1-yl)-1-piperidinyl]-ethyl]-2,7-dimethyl-5H-1,3,4-thiadiazolo[3,2-a]pyrimidin-5-one] | 0.63 mg/kg | 10 mg/kg | 0.63 mg/kg | 0.04 mg/kg | –
CNc1nc(C)c(CCN2CCC(n3ccc4cc(F)ccc43)CC2)c(=O)n1C [Compound 24, 5-[2-[4-(5-fluoro-1H-indol-1-yl)-1-piperidinyl]ethyl]-3,6-dimethyl-2-(methylamino)-4(3H)-pyrimidinone] | 0.63 mg/kg | 10 mg/kg | 0.16 mg/kg | 0.01 mg/kg | –
Cc1nc2n(c(=O)c1CCN1CCC(n3ccc4ccccc43)CC1)CCS2 [Compound 1, 2,3-dihydro-6[2-[4-(1H-indol-1-yl)-1-piperidinyl]ethyl]-7-methyl-5H-thiazolo[3,2-a]-pyrimidin-5-one] | 0.63 mg/kg | > 10 mg/kg | 0.63 mg/kg | 0.04 mg/kg | –
